± gives the expanded uncertainty stated by the source.
Conditions: 298.15 K; 101.33 kPa; Liquid

First: C1COCO1 [1,3-dioxolane]
Second: CO [methanol]
The mass density of the first is higher: 1058.6 ± 5 kg/m3 for the first, 786.7 ± 5 kg/m3 for the second.

Compound `O` [water] has a mass density of 997.2 ± 5 kg/m3.

Same assay, conditions: Liquid

Going from `C1COCO1` [1,3-dioxolane] to `CO` [methanol], the Normal boiling temperature falls from 75.42 ± 0.1 °C to 64.54 ± 0.1 °C.

With `O` [water] the Normal boiling temperature was 99.98 ± 0.1 °C.

Reference: the NIST ThermoML archive (doi:10.1021/je0201166)
